Test results as given in PMC3669347, “A Multi-System Approach Assessing the Interaction of Anticonvulsants with P-gp” (PLoS ONE, 2013).
Where two headings read alike, the source gives them in different places. Each block holds one molecule with its values, some of them ahead of it.

Tests used:
[1] = system: P-gp; conditions: cited from earlier work; for Brain accumulation affected by rodent P-gp: MDR1 knockout mice; for Substrate of P-gp (published evidence): MDR1 KO Mouse
[2] = system: human P-gp; conditions: cited from earlier work; for Substrate of P-gp (published evidence): Transfected human P-gp cell lines, equilibrium
[3] = target: T1, P-gp (Sus scrofa, UniProt K7GMM7); experiment: Permeability assay in primary porcine brain endothelial cells (PBECs); format: in vitro ADME; conditions: for Effect of verapamil or tariquidar treatment on apical to basolateral Papp: 6µM drug, 1 hour, 100µM verapamil, 300nM tariquidar; for Interaction with P-gp observed: Primary porcine brain endothelial
Procedure: The porcine brain microvessel isolation and culture protocol was based on previously published papers, [29]with modifications. Briefly, brains from six pigs (Cheale Meats Ltd., Brentwood, UK) were washed. The grey matter was homogenised, filtered, digested, centrifuged and microvessels cryopreserved.
The PBECs were seeded onto rat-tail collagen/fibronectin-coated transwell filter inserts at a density of 1×10^5cells/cm^2. […] This was conducted to elevate intracellular cAMP and thereby encourage differentiation of BBB phenotype including tight junctions. Cell monolayers were used when TEER exceeded 340 Ω.cm^2. For permeability assays, DMEM without phenol red with added HEPES (25mM) and 0.1% BSA was pH adjusted to 7.4 and used as transport medium. […] Samples were taken from both compartments.Apparent permeability (Papp) in cm/s for the compounds studied was calculated as previously described.

[4] = target: T2, P-gp (Homo sapiens, UniProt P08183); conditions: for Effect of tariquidar on accumulation in hCMEC/D3 cells: 5µM drug, 30 minutes, 300nM tariquidar; for Interaction with P-gp observed: Human brain endothelial cell line (hCMEC/D3)
Procedure: Cells were equilibrated in transport buffer (HBSS containing 25mM HEPES and 0.1% (w/v) bovine serum albumin at pH 7.4) at 37°C with accumulation assays performed as previously described [24], [25].

[5] = target: T1, P-gp; parameters: method as in PMID 12954800; conditions: porcine brain endothelial cells, cited from earlier work
[6] = system: mouse P-gp; conditions: Transfected mouse P-gp cell line; bi-directional transwell method; cited from earlier work
[7] = system: human P-gp; conditions: Transfected human P-gp cell lines; bi-directional transwell; cited from earlier work
[8] = system: P-gp; conditions: Microdialysis/brain access in rodent models; cited from earlier work
[9] = system: P-gp; conditions: cited from earlier work
[10] = system: P-gp; conditions: cited from earlier work; remark: listed apart in the source
[11] = target: T2, P-gp; experiment: Cellular accumulation assay in CEM and VBL100 cells; conditions: for Accumulation in VBL100 cells compared with CEM cells / Effect of tariquidar on accumulation in VBL100 cells: 5µM drug, 30 minutes; for Effect of tariquidar on accumulation in VBL100 cells: 300nM tariquidar; for Interaction with P-gp observed: CEM/VBL cells
[12] = target: T2, P-gp; experiment: Concentration equilibrium transport assay in Caco-2 cells; conditions: for Polarised transport in Caco-2 concentration equilibrium assay: 5µM drug, 4 hour time course, ±300nM tariquidar; for Interaction with P-gp observed: Caco-2 (equilibrium method)
[13] = target: T2, P-gp; experiment: Concentration equilibrium transport assay in MDCKII±P-gp cells; conditions: for Transport into the apical compartment, MDCKII-P-gp vs parental MDCKII cells: 5µM drug, 6 hour time course, ±300nM tariquidar; for Interaction with P-gp observed: MDCK±P-gp (equilibrium method)
[14] = target: T2, P-gp; experiment: Concentration equilibrium transport assay in LLC-PK1±P-gp cells; conditions: for Transport into the apical compartment, LLC-PK1-P-gp vs parental LLC-PK1 cells: 5µM drug, 6 hour time course, ±300nM tariquidar; for Interaction with P-gp observed: LLC-PK1±P-gp (equilibrium method)
[15] = target: T2, P-gp; experiment: X. laevis oocyte P-gp drug transport assay (efflux and accumulation); conditions: for Accumulation in oocytes expressing human P-gp vs water-injected oocytes: 20µM drug ±40µM PSC833, 1 hour; for Accumulation in oocytes expressing human P-gp vs water-injected oocytes / Efflux from P-gp injected oocytes vs water-injected oocytes: 22°C; for Interaction with P-gp observed: Xenopus laevis oocytes expressing human P-gp; for Efflux from P-gp injected oocytes vs water-injected oocytes: intra-oocyte 1µM digoxin or 5µM phenytoin, 45 minutes
[16] = target: T2, P-gp; parameters: induced multi-drug resistance through over-expression of P-gp; endogenous in cells; host or cells: CEM (low P-gp) and VBL100 (vinblastine-selected, high P-gp) cells; method as in PMID 11318771, PMID 16882549; conditions: Caco-2 bi-directional transwell; cited from earlier work
[17] = target: T2, P-gp; parameters: induced multi-drug resistance through over-expression of P-gp; endogenous in cells; host or cells: CEM (low P-gp) and VBL100 (vinblastine-selected, high P-gp) cells; method as in PMID 12954800; conditions: LLC-PK1-P-gp cells, 100µM drug; cited from earlier work
[18] = target: T2, P-gp; parameters: induced multi-drug resistance through over-expression of P-gp; endogenous in cells; host or cells: CEM (low P-gp) and VBL100 (vinblastine-selected, high P-gp) cells; conditions: cited from earlier work
[19] = target: T2, P-gp; parameters: induced multi-drug resistance through over-expression of P-gp; endogenous in cells; host or cells: CEM (low P-gp) and VBL100 (vinblastine-selected, high P-gp) cells; method as in PMID 17326793; conditions: Primary human brain endothelial cells; cited from earlier work
[20] = target: T2, P-gp; parameters: induced multi-drug resistance through over-expression of P-gp; endogenous in cells; host or cells: CEM (low P-gp) and VBL100 (vinblastine-selected, high P-gp) cells; method as in PMID 17326793; conditions: Primary epileptic derived human brain endothelial cells; cited from earlier work

T1 sequence (K7GMM7 1-1248): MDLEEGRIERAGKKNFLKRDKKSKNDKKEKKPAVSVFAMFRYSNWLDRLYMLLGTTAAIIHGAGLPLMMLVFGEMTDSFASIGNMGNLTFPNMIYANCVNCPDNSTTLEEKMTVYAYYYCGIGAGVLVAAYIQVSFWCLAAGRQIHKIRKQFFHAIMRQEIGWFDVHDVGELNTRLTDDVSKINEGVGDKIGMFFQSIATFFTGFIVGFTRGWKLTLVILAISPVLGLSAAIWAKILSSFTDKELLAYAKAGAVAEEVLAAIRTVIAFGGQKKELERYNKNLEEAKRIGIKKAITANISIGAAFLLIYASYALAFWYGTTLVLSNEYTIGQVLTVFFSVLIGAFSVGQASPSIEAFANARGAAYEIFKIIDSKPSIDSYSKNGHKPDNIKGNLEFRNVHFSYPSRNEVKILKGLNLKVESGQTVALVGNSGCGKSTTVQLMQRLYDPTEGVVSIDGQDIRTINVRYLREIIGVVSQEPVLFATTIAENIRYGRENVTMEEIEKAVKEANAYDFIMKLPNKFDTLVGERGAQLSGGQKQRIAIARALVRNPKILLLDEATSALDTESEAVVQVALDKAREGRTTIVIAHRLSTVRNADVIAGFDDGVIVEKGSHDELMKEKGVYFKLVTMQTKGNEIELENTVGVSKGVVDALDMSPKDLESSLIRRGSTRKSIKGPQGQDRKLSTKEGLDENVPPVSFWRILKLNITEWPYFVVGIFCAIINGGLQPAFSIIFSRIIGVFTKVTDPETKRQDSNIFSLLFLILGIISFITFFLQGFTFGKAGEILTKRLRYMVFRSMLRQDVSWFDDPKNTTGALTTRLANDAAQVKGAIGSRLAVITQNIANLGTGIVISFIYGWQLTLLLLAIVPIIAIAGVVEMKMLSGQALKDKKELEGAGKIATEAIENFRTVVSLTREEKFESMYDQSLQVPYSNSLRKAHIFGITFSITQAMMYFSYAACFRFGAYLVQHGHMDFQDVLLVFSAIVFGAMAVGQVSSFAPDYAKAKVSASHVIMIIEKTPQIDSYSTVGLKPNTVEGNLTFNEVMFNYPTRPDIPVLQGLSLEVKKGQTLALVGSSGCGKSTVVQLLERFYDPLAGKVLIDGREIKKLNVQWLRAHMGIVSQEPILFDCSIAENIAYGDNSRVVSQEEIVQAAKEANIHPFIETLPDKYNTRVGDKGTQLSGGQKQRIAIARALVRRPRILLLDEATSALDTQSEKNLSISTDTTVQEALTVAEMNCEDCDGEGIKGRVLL
T2 sequence (P08183 whole entry): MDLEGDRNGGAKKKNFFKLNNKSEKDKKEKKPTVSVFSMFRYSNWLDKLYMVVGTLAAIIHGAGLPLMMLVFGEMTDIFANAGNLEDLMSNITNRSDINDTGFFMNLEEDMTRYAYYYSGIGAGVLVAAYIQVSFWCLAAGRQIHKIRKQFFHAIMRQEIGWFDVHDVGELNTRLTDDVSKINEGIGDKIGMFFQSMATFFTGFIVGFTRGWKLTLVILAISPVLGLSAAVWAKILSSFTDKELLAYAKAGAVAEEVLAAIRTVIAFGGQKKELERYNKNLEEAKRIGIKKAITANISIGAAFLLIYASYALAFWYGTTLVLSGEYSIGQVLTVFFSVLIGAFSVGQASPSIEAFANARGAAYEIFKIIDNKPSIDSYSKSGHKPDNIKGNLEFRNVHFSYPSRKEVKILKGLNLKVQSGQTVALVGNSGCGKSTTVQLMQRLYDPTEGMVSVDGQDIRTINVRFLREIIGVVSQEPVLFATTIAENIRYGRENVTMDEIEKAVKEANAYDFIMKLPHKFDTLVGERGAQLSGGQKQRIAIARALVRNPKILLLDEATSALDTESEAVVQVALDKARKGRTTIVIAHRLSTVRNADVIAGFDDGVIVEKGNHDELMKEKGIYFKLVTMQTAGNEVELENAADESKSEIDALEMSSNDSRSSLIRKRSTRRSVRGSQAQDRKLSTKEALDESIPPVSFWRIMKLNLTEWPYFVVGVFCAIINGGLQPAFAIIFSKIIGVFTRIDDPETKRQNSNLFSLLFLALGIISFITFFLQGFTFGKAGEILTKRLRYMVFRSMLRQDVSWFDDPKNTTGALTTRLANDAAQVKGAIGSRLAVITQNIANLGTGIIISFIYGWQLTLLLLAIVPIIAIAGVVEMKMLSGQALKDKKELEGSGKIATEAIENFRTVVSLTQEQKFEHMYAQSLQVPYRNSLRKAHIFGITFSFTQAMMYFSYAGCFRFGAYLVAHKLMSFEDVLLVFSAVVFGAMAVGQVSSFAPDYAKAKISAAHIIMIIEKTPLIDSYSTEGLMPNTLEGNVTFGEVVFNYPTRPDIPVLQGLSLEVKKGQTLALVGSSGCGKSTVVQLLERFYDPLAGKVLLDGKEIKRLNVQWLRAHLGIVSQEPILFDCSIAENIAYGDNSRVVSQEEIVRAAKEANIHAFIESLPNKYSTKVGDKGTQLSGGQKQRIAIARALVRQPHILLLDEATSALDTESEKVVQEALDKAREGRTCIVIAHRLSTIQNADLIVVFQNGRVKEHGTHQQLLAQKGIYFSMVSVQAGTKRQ

Compound: Nc1nnc(-c2cccc(Cl)c2Cl)c(N)n1 [lamotrigine]
Brain accumulation affected by rodent P-gp [1]: not
Inhibition by tariquidar of P-gp mediated transport ([2]; LLC-PK1-P-gp, concentration equilibrium approach, ref 18 (Luna-Tortos et al)): 60%

Effect of verapamil or tariquidar treatment on apical to basolateral Papp [3]: decrease
Interaction with P-gp observed [3]: No
Effect of tariquidar on accumulation in hCMEC/D3 cells [4]: No effect of tariquidar
Interaction with P-gp observed [4]: No
Accumulation in VBL100 cells compared with CEM cells [11]: significantly higher accumulation
Effect of tariquidar on accumulation in VBL100 cells [11]: not inhibited by tariquidar
Interaction with P-gp observed [11]: No
Polarised transport in Caco-2 concentration equilibrium assay [12]: No polarised transport
Interaction with P-gp observed [12]: No
Transport into the apical compartment, MDCKII-P-gp vs parental MDCKII cells [13]: no difference
Interaction with P-gp observed [13]: No
Transport into the apical compartment, LLC-PK1-P-gp vs parental LLC-PK1 cells [14]: no transport
Interaction with P-gp observed [14]: No
Accumulation in oocytes expressing human P-gp vs water-injected oocytes [15]: No differences
Interaction with P-gp observed [15]: No
Compound: NC(=O)N1c2ccccc2C=Cc2ccccc21 [carbamazepine]
Inhibition of uptake of calcein AM ([5]; 10µM): not at 10µM
Inhibition of uptake of calcein AM ([5]; 100µM): able to inhibit
Substrate of P-gp (published evidence) [1]: No
Brain accumulation affected by rodent P-gp [1]: not
Substrate of P-gp (published evidence) [6]: No
Substrate of P-gp (published evidence) [7]: No
Substrate of P-gp (published evidence) [2]: No
Transport by P-gp, concentration equilibrium approach [2]: does not transport
Substrate of P-gp (published evidence) [8]: Yes
Stimulation of P-gp ATPase activity (published evidence) [9]: No
Calcein-AM P-gp inhibition assay (published evidence) [10]: No
Substrate of P-gp (published evidence) [16]: No
Inhibition of the uptake of the P-gp substrate [17]: no inhibition

Compound: Cc1ccc(NC(=O)c2ccc(CN3CCN(C)CC3)cc2)cc1Nc1nccc(-c2cccnc2)n1 [imatinib]
Identified as P-gp substrate with CEM and VBL100 cells [18]: P-gp substrates

Accumulation in VBL100 cells compared with CEM cells [11]: less accumulation
Effect of tariquidar on accumulation in VBL100 cells [11]: tariquidar restored accumulation
Transport into the apical compartment, LLC-PK1-P-gp vs parental LLC-PK1 cells [14]: significantly higher transport
P-gp substrate status in oocyte expression system ([15]; imatinib data not shown): confirmed to be substrates
Efflux from P-gp injected oocytes vs water-injected oocytes [15]: higher efflux
Effect of PSC-833 on efflux from P-gp injected oocytes ([15]; intra-oocyte 1µM digoxin, 40µM PSC833): reduced
Compound: C[C@H]1O[C@@H](O[C@H]2[C@@H](O)C[C@H](O[C@H]3[C@@H](O)C[C@H](O[C@H]4CC[C@@]5(C)[C@H](CC[C@@H]6[C@@H]5C[C@@H](O)[C@]5(C)[C@@H](C7=CC(=O)OC7)CC[C@]65O)C4)O[C@@H]3C)O[C@@H]2C)C[C@H](O)[C@@H]1O [digoxin]
Polarised transport in Caco-2 concentration equilibrium assay [12]: transported into the apical compartment and this was inhibited by tariquidar
Transport into the apical compartment, MDCKII-P-gp vs parental MDCKII cells [13]: significant increase in apical concentration

Effect of verapamil or tariquidar treatment on apical to basolateral Papp [3]: not affected
Interaction with P-gp observed [3]: No
Effect of tariquidar on accumulation in hCMEC/D3 cells [4]: No effect of tariquidar
Interaction with P-gp observed [4]: No
Interaction with P-gp observed [11]: No
Polarised transport in Caco-2 concentration equilibrium assay [12]: No polarised transport
Interaction with P-gp observed [12]: No
Interaction with P-gp observed [13]: Yes –“weak”
Interaction with P-gp observed [14]: Yes –“weak”
Accumulation in oocytes expressing human P-gp vs water-injected oocytes [15]: No differences
Interaction with P-gp observed [15]: No
Efflux from P-gp injected oocytes vs water-injected oocytes [15]: No difference
Compound: O=C1NC(=O)C(c2ccccc2)(c2ccccc2)N1 [phenytoin]
Substrate of P-gp (published evidence) [1]: Yes/No
Brain accumulation affected by rodent P-gp [1]: affects brain accumulation
Substrate of P-gp (published evidence) [6]: Yes/No
Substrate of P-gp (published evidence) [7]: No
Substrate of P-gp (published evidence) [2]: Yes
Substrate of P-gp (published evidence) [8]: Yes
Stimulation of P-gp ATPase activity (published evidence) [9]: No
Calcein-AM P-gp inhibition assay (published evidence) [10]: No
Accumulation in VBL100 cells compared with CEM cells [11]: No significant decrease in accumulation or tariquidar inhibition
Transport into the apical compartment, MDCKII-P-gp vs parental MDCKII cells [13]: more phenytoin was transported into the apical compartment
Transport into the apical compartment, LLC-PK1-P-gp vs parental LLC-PK1 cells [14]: higher in LLC-PK1-P-gp cells and inhibitable by tariquidar
Substrate of P-gp (published evidence) [16]: No
Substrate of P-gp (published evidence) [19]: No
Substrate of P-gp (published evidence) [20]: Yes
Inhibition of the uptake of the P-gp substrate [17]: no inhibition

Compound: CC1(C)CCC(c2ccc(Cl)cc2)=C(CN2CCN(c3ccc(C(=O)NS(=O)(=O)c4ccc(N[C@H](CCN5CCOCC5)CSc5ccccc5)c(S(=O)(=O)C(F)(F)F)c4)cc3)CC2)C1 [ABT-263]
Identified as P-gp substrate with CEM and VBL100 cells [18]: P-gp substrates

Compound: NC(=O)N1c2ccccc2C2OC2c2ccccc21 (centres unmarked) [carbamazepine-10,11-epoxide]
Transport by P-gp, concentration equilibrium approach [2]: does transport
